The record followed here is US20140342392A1, “OPTIMIZED INSECT-BASED EX VIVO MODEL FOR TESTING BLOOD-BRAIN BARRIER PENETRATION AND METHOD FOR EXPOSING INSECT BRAIN TO CHEMICAL COMPOUNDS” (ENTOMOPHARM ApS, priority 2011, published 2014).

The structures appear in SMILES notation.

This data set relates to locust brain (blood-brain barrier). The settings on record: co-treatment with verapamil, brain removed from the cuticula, also after removal of the neural lamella. As for the experimental part:
1. […] The insects may be obtained from local suppliers or bred in house. The grasshoppers were reared under crowded conditions at 28° C. and a 12:12 dark:light photocycle and fed fresh grass and bran. Before experiments the grasshoppers were fed ecologically cultivated wheat for two weeks. Animals used are adult males (in some experiments females) between two to four weeks after adult emergence. […] After various times of exposure the preparation is washed in saline and the brain is dissected under microscope with fine forceps. The neural lamella surrounding the brain is removed in saline and the brain is then […] in saline, centrifuged and the supernatant frozen until analyses. Drug concentration is analysed by HPLC, LC/MSMS or other methods.

Turning to `C=C[C@H]1C[N@@]2CC[C@H]1C[C@@H]2[C@@H](O)c1ccnc2ccc(OC)cc12` [quinidine], the “brain concentration with versus without Pgp inhibitor (FIG. 2)” value was “higher after co-treatment with the Pgp inhibitor verapamil”.
